Several values for one entry are separate records, joined by “and”; a condition that tells them apart may be missing. Equal entries are not always repeated.
Tested on: MDA-MB-468 spheroids with HUVEC/MSC, viability
Test: Anticancer human tumor MDA-MB-468 cell line growth inhibition [PI3K];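 further: spheroids exposed to agents for seven days before readout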;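 on viability, T/C: 100% = DMSO vehicle control viability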
Conditions: for viability, T/C: stronger effect = lower value
Description: Combinatorial screen of targeted agents with the PI3K inhibitors inavolisib, alpelisib, duvelisib, and copanlisib in multi-cell type tumor spheroids
A high-throughput screen of multi-cell type tumor spheroids was designed to identify active combinations of targeted small molecules and PI3K pathway inhibitors. Complex spheroids include a stromal component modeled by human endothelial cells (HUVEC) and fibroblasts modeled by human mesenchymal stem cells (MSCs). The concentration ranges selected for each drug and investigational agent were based upon clinically achievable concentrations if the clinical Cmax of the agent was known.
Compounds. The drugs and investigational agents: inavolisib (NSC800729), alpelisib (NSC765974), duvelisib (NSC772469), copanlisib (NSC816437), ipatasertib (NSC767898), afuresertib (NSC778305), talazoparib (NSC767125), sapanisertib (NSC764658), selumetinib (NSC741078), tovorafenib (DAY101, NSC766906), vemurafenib (NSC761431), ravoxertinib (NSC781343), sotorasib (NSC818433), MRTX1133 (NSC 836407), abemaciclib (NSC 768073), palbociclib (NSC758247), venetoclax (NSC 766270), SY5609 (NSC837396), enzalutamide (NSC755605), and darolutamide (NSC825331), were obtained from the National Cancer Institute (NCI) Developmental Therapeutics Program Chemical Repository. The FDA-approved anticancer drug set is available from the NCI Developmental Therapeutics Program. […] The stock solutions were prepared in dimethyl sulfoxide (DMSO, Sigma-Aldrich, St. Louis, MO, cat. D2650) at 800-fold the tested concentration and stored at -70 degrees C prior to their use. All drugs and investigational agents were tested over a range starting from a high concentration at or near the clinical Cmax and decreasing in half-log increments. If the clinical Cmax for an agent had not been determined, the highest concentration tested was 10 microM.
Cell Culture. All cells were maintained in an incubator at 37 degrees C and 5% CO2 with 95% humidity. The PDC lines were cultured according to standard operating procedures established by the NCI PDMR (https://pdmr.cancer.gov/sops/default.htm). All PDCs were thawed and cultured in Matrigel-coated flasks prepared with a working solution of 1X Ham's F-12 nutrient mix, without supplementation (Invitrogen, Waltham, MA, cat. 11765054), 100 U/mL penicillin-streptomycin (Invitrogen, cat. 15140122), and 2.5% Matrigel (Corning Inc., Corning, NY, cat. 354248) for the first three passages. The 354836-022-R-J1-PDC, 475296-252-R-J1-PDC, and 997726-040-R-J2-PDC lines were cultured in 6A media, which includes advanced DMEM/F-12 (Thermo Fisher Scientific, cat. 12634028), 10 mM HEPES (Thermo Fisher Scientific, cat. 15630080), 1X GlutaMAX supplement (Thermo Fisher Scientific, cat. 35050061), 0.1 mg/mL primocin (InvivoGen, San Diego, CA, cat. ant-pm-2), 10% defined fetal bovine serum, heat inactivated (HyClone Laboratories Inc., Logan, UT, cat. SH30070.03HI), 50% L-WRN conditioned media (ATCC, cat. CRL-3276), 1.25 mM N-Acetyl-L-cysteine (Sigma-Aldrich, cat. A9165), 10 mM nicotinamide (Sigma-Aldrich, cat. N0636), 1X B-27 supplement (Thermo Fisher Scientific, cat. 17504044), 1X N-2 supplement (Thermo Fisher Scientific, cat. 17502048), and 10 microM Y-27632 dihydrochloride (Tocris Bioscience, Bristol, United Kingdom, cat. 1254). The 624824-186-R-J2-PDC line was cultured in 6C/Colon 1B media, which includes all 6A media components plus 50 ng/mL human EGF recombinant protein (Thermo Fisher Scientific, cat. PHG0311). […]

[1] = compound alone, run of 05/09/2023

Row | SMILES | viability, T/C (compound 0.0316 µM) | viability, T/C (compound 0.1 µM) | viability, T/C (compound 0.316 µM) | viability, T/C (compound 1 µM) | viability, T/C (compound 10 µM) | IC50 (curve of compound) | viability, T/C (compound 3.16 µM) | viability, T/C (compound 0.00316 µM) | also measured
1 | C#Cc1c(F)ccc2cc(O)cc(-c3ncc4c(N5CC6CCC(C5)N6)nc(OCC56CCCN5CC(F)C6)nc4c3F)c12 (stereo not drawn) | 81.9% [middle of 4 runs] | 92.6% [middle of 4 runs] | 92.2% [middle of 4 runs] | 100% [middle of 4 runs] | 55.1% [middle of 4 runs] | > 10 µM and 9.96 µM |  |  | 
2 | C=CC(=O)N1CCN(c2nc(=O)n(-c3c(C)ccnc3C(C)C)c3nc(-c4c(O)cccc4F)c(F)cc23)C(C)C1 (stereo not drawn) | 94.1% [middle of 4 runs] | 96.2% [middle of 4 runs] |  | 107% (2×) and 89.3% and 105% | 78.6% [middle of 4 runs] | > 10 µM | 101% [middle of 4 runs] |  | 
3 | CC(=O)c1c(C)c2cnc(Nc3ccc(N4CCNCC4)cn3)nc2n(C2CCCC2)c1=O | 99.3% [middle of 4 runs] | 97.2% [middle of 4 runs] |  |  |  | > 0.1 µM |  | 110% [middle of 4 runs] | viability, T/C (compound 0.000316 µM): 106% [middle of 4 runs]; viability, T/C (compound 0.001 µM): 93.5% [middle of 4 runs]; viability, T/C (compound 0.01 µM): 91% [middle of 4 runs]
4 | CC(C)NCC(C(=O)N1CCN(c2ncnc3c2C(C)CC3O)CC1)c1ccc(Cl)cc1 (stereo not drawn) | 89.5% [middle of 4 runs] | 81.3% [middle of 4 runs] |  | 54.2% [middle of 4 runs] | 26.4% and 22.6% (2×) and 27% | 1.29 µM [middle of 4 runs] | 32.4% [middle of 4 runs] |  | 
5 | CC(C)n1nc(-c2ccc3oc(N)nc3c2)c2c(N)ncnc21 | 64.6% [middle of 4 runs] | 19.3% [middle of 4 runs] |  |  |  | 44.4 nM [middle of 4 runs] |  | 93% [middle of 4 runs] | viability, T/C (compound 0.000316 µM): 101% [middle of 4 runs]; viability, T/C (compound 0.01 µM): 81.4% [middle of 4 runs]
6 | CC(Cn1ccc(-c2ccc(C#N)c(Cl)c2)n1)NC(=O)c1cc(C(C)O)[nH]n1 (stereo not drawn) | 98% [middle of 4 runs] | 87.6% [middle of 4 runs] | 87.2% and 90.1% and 102% (2×) | 96.8% [middle of 4 runs] |  | > 10 µM | 83.8% [middle of 4 runs] |  | 
7 | CC(Nc1ccc2c(c1)OCCn1cc(N3C(=O)OCC3C(F)F)nc1-2)C(N)=O (stereo not drawn) | 84.2% [middle of 8 runs] | 91.4% [middle of 8 runs] | 93.4% [middle of 8 runs] | 90.8% [middle of 8 runs] |  |  |  | 96.8% [middle of 8 runs] | viability, T/C (compound 0.01 µM): 88.1% [middle of 8 runs]; IC50 (compound alone, run of 05/08/2023): > 1 µM
8 | CC(Nc1ncnc2nc[nH]c12)c1cc2cccc(Cl)c2c(=O)n1-c1ccccc1 (stereo not drawn) | 94% [middle of 8 runs] | 93.1% [middle of 8 runs] | 81% [middle of 8 runs] | 71.2% [middle of 8 runs] | 40.7% [middle of 8 runs] |  | 55.5% [middle of 8 runs] |  | IC50 [1]: 4.95 µM [middle of 8 runs]
9 | CC1(C)CCC(CN2CCN(c3ccc(C(=O)NS(=O)(=O)c4ccc(NCC5CCOCC5)c([N+](=O)[O-])c4)c(Oc4cnc5[nH]ccc5c4)c3)CC2)=C(c2ccc(Cl)cc2)C1 | 92.6% [middle of 4 runs] | 88% [middle of 4 runs] | 97.9% [middle of 4 runs] | 99.4% [middle of 4 runs] |  |  | 72.8% [middle of 4 runs] |  | 
10 | CC1(C)CCC(Nc2ncc(C(F)(F)F)c(-c3c[nH]c4c(P(C)(C)=O)c(C#N)ccc34)n2)CN1 (stereo not drawn) | 12% [middle of 4 runs] | 10.6% [middle of 4 runs] | 9.01% [middle of 4 runs] | 7.86% [middle of 4 runs] | 1.71% [middle of 4 runs] | < 0.0316 µM | 8.98% [middle of 4 runs] |  | 
11 | CCN1CCN(Cc2ccc(Nc3ncc(F)c(-c4cc(F)c5nc(C)n(C(C)C)c5c4)n3)nc2)CC1 | 99.3% [middle of 4 runs] |  | 108% [middle of 4 runs] | 66.1% [middle of 4 runs] |  | > 1 µM |  | 98.5% and 101% (2×) and 106% | 
12 | CNC(=O)c1ccc(N2C(=S)N(c3ccc(C#N)c(C(F)(F)F)c3)C(=O)C2(C)C)cc1F | 98% [middle of 4 runs] | 97% [middle of 4 runs] | 97% [middle of 4 runs] | 102% [middle of 4 runs] | 72.8% [middle of 4 runs] | > 10 µM | 93.3% [middle of 4 runs] |  | 
13 | COc1c(OCCCN2CCOCC2)ccc2c3n(c(=NC(=O)c4cnc(N)nc4)nc12)CCN3 | 76.7% [middle of 8 runs] | 57.7% [middle of 8 runs] | 23.9% [middle of 8 runs] | 3.27% [middle of 8 runs] |  |  |  | 99.8% [middle of 8 runs] | viability, T/C (compound 0.01 µM): 90.4% [middle of 8 runs]; IC50 [1]: 122 nM [middle of 7 runs]
14 | C[C@@H](NC(=O)c1ncnc(N)c1Cl)c1ncc(C(=O)Nc2cc(C(F)(F)F)c(Cl)cn2)s1 | 95.6% [middle of 4 runs] | 102% [middle of 4 runs] |  | 99.1% [middle of 4 runs] |  | > 10 µM |  |  | 
15 | Cc1nc(NC(=O)N2CCCC2C(N)=O)sc1-c1ccnc(C(C)(C)C(F)(F)F)c1 (stereo not drawn) | 89% [middle of 8 runs] | 83.7% [middle of 8 runs] | 81.1% [middle of 8 runs] | 77.9% [middle of 8 runs] | 44.1% [middle of 8 runs] |  | 70.2% [middle of 7 runs] |  | 
16 | Cn1cnc2c(F)c(Nc3ccc(Br)cc3Cl)c(C(=O)NOCCO)cc21 |  |  |  |  |  | > 3 µM |  |  | viability, T/C (compound 0.00949 µM): 82.8% [middle of 4 runs]; viability, T/C (compound 0.03 µM): 83.3% [middle of 4 runs]; viability, T/C (compound 0.0949 µM): 86.8% [middle of 4 runs]; viability, T/C (compound 0.3 µM): 87.3% [middle of 4 runs]; viability, T/C (compound 0.949 µM): 88.8% [middle of 4 runs]; viability, T/C (compound 3 µM): 64.7% [middle of 4 runs]
17 | Cn1ncc(Cl)c1-c1cc(C(=O)NC(CN)Cc2cccc(F)c2)sc1Cl (stereo not drawn) | 86.1% [middle of 4 runs] | 69.6% and 66.7% (2×) and 83% | 53.9% [middle of 4 runs] | 34.2% [middle of 4 runs] | 15.4% [middle of 4 runs] | 462 nM [middle of 4 runs] | 29.6% [middle of 4 runs] |  | 
18 | Cn1nccc1Nc1nccc(-c2ccn(C(CO)c3ccc(Cl)c(F)c3)c(=O)c2)n1 (stereo not drawn) | 92.3% [middle of 4 runs] | 92.9% [middle of 4 runs] | 101% [middle of 4 runs] |  | 81.9% [middle of 4 runs] | > 10 µM |  |  | 
19 | Cn1ncnc1[C@H]1c2n[nH]c(=O)c3cc(F)cc(c23)N[C@@H]1c1ccc(F)cc1 | 87.3% [middle of 4 runs] | 56.5% [middle of 4 runs] |  |  |  | > 0.1 µM |  | 85.1% [middle of 4 runs] | viability, T/C (compound 0.000316 µM): 95.9% [middle of 4 runs]; viability, T/C (compound 0.001 µM): 93.9% [middle of 4 runs]; viability, T/C (compound 0.01 µM): 82.2% [middle of 4 runs]

From PubChem BioAssay AID1963960 (Molecular Pharmacology Branch, DTP, NCI, 2024)
